Measured values published in the NIST ThermoML archive (doi:10.1021/acs.jced.7b00321).
± gives the expanded uncertainty stated by the source.

Conditions: 101 kPa, Liquid; for viscosity: Capillary tube (Ostwald / Ubbelohde) method; for mass density: Vibrating tube method

Row | Structure (SMILES) | viscosity (293.15 K) [mPa·s] | mass density (293.15 K) [kg/m3] | viscosity (303.15 K) [mPa·s] | mass density (303.15 K) [kg/m3] | viscosity (313.15 K) [mPa·s] | mass density (313.15 K) [kg/m3] | viscosity (323.15 K) [mPa·s] | mass density (323.15 K) [kg/m3]
1 | CC(O)CN (stereo not given) [1-amino-2-propanol] | 30.44 ± 0.65 | 960.81 ± 1 | 17.87 ± 0.39 | 952.25 ± 1 | 10.79 ± 0.23 | 944.43 ± 1 | 6.99 ± 0.15 | 936.21 ± 1
2 | NCCCO [3-amino-1-propanol] | 40.26 ± 0.86 | 987.5 ± 1 | 24.03 ± 0.52 | 979.45 ± 1 | 15.08 ± 0.32 | 971.67 ± 1 | 10.01 ± 0.22 | 963.36 ± 1
3 | NCCNCCO [N-(2-aminoethyl)ethanolamine] | 136.19 ± 3.6 | 1029.14 ± 1 | 71.64 ± 1.6 | 1021.45 ± 1 | 39.59 ± 0.86 | 1014.18 ± 1 | 23.41 ± 0.52 | 1006.54 ± 1
4 | NCCNCCN [di(2-aminoethyl)amine] | 6.99 ± 0.15 | 951.16 ± 1 | 4.79 ± 0.1 | 942.19 ± 1 | 3.45 ± 0.07 | 933.93 ± 1 | 2.6 ± 0.06 | 925.42 ± 1
5 | CCO [ethanol] | 1.17 ± 0.02 | 788.88 ± 1 | 0.97 ± 0.02 | 781.69 ± 1 | 0.81 ± 0.02 | 772.3 ± 1 | 0.69 ± 0.02 | 765.29 ± 1
